Results published in ChEMBL document CHEMBL1201862, “PubChem BioAssay data set” (2004).
Calls of active or inactive are those of the source.

Assays:
[1] = target: T1, Long-chain-fatty-acid--AMP ligase FadD28 (Mycobacterium tuberculosis, UniProt P9WQ59); assay: Fluorescence polarization aasay to screen for inhibitors that compete for the binding of FadD28 to a bisubstrate Measured in Biochemical System Using Plate Reader - 2147-01_Inhibitor_Dose_CherryPick_Activity.; type: functional, Mycobacterium tuberculosis H37Rv
T1 sequence (P9WQ59 whole entry): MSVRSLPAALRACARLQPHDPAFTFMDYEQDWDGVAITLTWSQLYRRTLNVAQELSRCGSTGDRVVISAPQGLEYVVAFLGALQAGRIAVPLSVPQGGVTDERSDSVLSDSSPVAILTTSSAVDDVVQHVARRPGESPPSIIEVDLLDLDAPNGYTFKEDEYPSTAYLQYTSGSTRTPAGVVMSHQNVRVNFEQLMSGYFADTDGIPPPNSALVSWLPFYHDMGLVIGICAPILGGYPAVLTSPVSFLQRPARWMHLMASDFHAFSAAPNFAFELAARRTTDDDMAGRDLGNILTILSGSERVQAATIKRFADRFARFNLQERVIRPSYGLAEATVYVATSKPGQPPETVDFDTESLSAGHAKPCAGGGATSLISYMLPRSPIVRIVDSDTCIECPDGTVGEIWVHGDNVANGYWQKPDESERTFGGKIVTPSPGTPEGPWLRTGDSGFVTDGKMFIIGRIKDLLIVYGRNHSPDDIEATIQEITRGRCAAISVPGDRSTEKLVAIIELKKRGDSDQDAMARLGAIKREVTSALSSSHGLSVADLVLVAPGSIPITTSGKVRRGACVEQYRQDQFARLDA

[2] = target: T2, Endoribonuclease toxin MazF (Escherichia coli K-12, UniProt P0AE70); assay: activation of MazEF endoribonuclease cleavage – biochemical, fluorescence, single-stranded RNA substrate, uHTS hits, dose response (AID 588481); type: functional
T2 sequence (P0AE70 whole entry): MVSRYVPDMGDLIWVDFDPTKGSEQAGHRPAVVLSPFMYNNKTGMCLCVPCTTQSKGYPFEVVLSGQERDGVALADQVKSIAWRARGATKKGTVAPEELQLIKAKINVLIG

[3] = target: T2, Endoribonuclease toxin MazF; assay: substrate-only fluorescence increase artefacts – biochemical, single-stranded RNase substrate, counter-screen for MazEF activator project, dose response (AID 588502); type: functional
[4] = NIH3T3 cell viability loss – ATP luminescence, mouse fibroblasts, counter-screen, dose response (AID 2010); type: functional, cell-based;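 further: cells exposed to compound for about 90 hours before reading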
[5] = viability of PTEN-deleted HCT116 cells – cell-based, HCT116 PTEN knockout, dose response (AID 1047); type: functional;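 further: HCT116 colon tumor cells with PTEN knocked out; cells exposed to compound for 60 hours before readout; potency for loss of cell viability measured by luminescence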
[6] = viability of HCT116 lacking mutant beta-catenin – cell-based, human colon tumor, dose response (AID 1045); type: functional;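 further: HCT116 colon tumor cells with beta catenin knocked out; cells exposed to compound for 60 hours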
[7] = viability loss in HepG2 hepatoma cells – cell-based, ATP luminescence, cherry-pick, activator set 2, cytotoxicity control, dose response (AID 1053143); type: functional
[8] = tested on: INS1; assay: INS-1E survival protection against cytokine death – cell-based, luminescence, retest, dose response (AID 449756); type: functional; conditions: Rattus norvegicus;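 further: cell death triggered by IL-1 beta plus TNF-alpha plus IFN-gamma mixture; protective hits raise ATP signal compared with cytokine alone wells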
[9] = Trypanosoma cruzi growth suppression in host cells – NIH3T3 host cells, beta-gal luminescence, confirmation (AID 2044); type: functional, cell-based;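 further: intracellular parasites grown in NIH/3T3 mouse fibroblasts as host cells; luminescent beta-galactosidase reporter signal from transgenic T. cruzi replicating inside host cells; inhibitors lower the luminescence signal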
[10] = target: Cytochrome P450 2C19 (Homo sapiens, UniProt P33261); assay: Cytochrome panel assay with activity outcomes. Panel member name: p450-cyp2c19 Compounds with AC50 equal or less than 10 uM are considered active; type: functional; conditions: read-out: AC50
Cytochrome P450 2C19, sequence (P33261 whole entry): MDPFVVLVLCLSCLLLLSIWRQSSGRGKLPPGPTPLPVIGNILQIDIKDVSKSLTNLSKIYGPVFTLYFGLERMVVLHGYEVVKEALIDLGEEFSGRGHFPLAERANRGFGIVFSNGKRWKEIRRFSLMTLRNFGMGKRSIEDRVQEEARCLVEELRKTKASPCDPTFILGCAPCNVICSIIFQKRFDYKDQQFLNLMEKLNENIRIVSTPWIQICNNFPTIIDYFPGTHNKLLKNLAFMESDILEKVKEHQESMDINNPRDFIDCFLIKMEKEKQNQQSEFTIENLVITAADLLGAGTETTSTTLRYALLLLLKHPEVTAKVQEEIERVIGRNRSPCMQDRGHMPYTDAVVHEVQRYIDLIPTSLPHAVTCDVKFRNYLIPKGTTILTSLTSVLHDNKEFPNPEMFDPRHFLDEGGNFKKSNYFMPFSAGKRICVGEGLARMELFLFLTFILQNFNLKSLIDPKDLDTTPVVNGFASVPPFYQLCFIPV

[11] = cells
[12] = target: Intestinal-type alkaline phosphatase (Mus musculus, UniProt P24822); assay: PubChem AID 488785; type: functional
Intestinal-type alkaline phosphatase (Mus musculus, UniProt P24822), sequence (P24822 whole entry): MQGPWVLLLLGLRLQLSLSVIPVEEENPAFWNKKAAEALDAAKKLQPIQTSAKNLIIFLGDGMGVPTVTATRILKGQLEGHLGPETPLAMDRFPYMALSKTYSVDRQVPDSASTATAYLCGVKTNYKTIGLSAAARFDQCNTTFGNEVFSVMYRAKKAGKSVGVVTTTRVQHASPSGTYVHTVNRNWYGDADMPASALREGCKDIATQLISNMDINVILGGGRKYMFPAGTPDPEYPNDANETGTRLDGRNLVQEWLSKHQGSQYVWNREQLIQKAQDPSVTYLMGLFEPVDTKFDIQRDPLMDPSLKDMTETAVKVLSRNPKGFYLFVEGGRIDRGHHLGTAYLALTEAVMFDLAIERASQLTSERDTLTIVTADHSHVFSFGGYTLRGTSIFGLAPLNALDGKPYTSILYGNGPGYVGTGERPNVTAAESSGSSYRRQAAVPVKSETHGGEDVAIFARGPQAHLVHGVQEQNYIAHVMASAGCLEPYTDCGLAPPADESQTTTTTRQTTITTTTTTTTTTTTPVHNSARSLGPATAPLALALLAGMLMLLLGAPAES

[13] = target: Intestinal-type alkaline phosphatase (Homo sapiens, UniProt P09923); assay: inhibition of human intestinal alkaline phosphatase – biochemical, dose response (AID 488876); type: functional
Intestinal-type alkaline phosphatase (Homo sapiens, UniProt P09923), sequence (P09923 whole entry): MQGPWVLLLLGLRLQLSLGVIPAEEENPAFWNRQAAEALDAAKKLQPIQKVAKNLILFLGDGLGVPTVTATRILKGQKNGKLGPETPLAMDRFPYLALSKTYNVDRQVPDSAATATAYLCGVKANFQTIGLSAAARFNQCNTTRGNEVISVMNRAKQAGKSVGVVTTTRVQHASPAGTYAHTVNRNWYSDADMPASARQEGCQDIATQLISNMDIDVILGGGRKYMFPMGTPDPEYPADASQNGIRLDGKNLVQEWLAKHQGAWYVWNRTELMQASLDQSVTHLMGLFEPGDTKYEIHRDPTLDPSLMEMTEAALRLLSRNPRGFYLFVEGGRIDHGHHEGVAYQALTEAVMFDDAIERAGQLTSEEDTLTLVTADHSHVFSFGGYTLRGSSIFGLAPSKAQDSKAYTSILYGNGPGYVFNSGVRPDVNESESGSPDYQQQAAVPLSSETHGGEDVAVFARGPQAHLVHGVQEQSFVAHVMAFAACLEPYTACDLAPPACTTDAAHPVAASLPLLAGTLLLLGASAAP

[14] = viability of uninfected HEp-2 cells – cell-based, HTS, cytotoxicity control for RSV inhibitor project, dose response (AID 2410); type: functional; conditions: human respiratory syncytial virus
[15] = target: T3, Alkaline phosphatase, tissue-nonspecific isozyme (Homo sapiens, UniProt P05186); assay: TNAP enzyme inhibition by screening hits, dose response, selectivity assay for mouse IAP inhibitor project, biochemical, human TNAP, uHTS hits (AID 488906); type: functional
T3 sequence (P05186 whole entry): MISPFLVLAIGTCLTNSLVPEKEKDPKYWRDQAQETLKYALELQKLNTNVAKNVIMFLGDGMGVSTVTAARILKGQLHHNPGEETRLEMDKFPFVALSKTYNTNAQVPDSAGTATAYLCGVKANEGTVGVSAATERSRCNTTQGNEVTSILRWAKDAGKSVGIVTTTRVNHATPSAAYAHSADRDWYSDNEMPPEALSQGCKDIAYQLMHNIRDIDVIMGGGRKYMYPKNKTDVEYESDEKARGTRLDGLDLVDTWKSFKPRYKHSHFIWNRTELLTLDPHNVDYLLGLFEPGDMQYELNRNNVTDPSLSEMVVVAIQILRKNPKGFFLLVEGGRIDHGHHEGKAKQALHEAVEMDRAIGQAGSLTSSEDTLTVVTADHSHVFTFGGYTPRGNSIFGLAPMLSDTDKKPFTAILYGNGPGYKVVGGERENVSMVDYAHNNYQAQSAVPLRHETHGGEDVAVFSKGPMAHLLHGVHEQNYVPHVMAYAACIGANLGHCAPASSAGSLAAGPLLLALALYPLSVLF

[16] = blockers of bursicon-stimulated LGR2 cAMP reporter – cell-based, HEK293, CRE-luciferase reporter, cherry pick, set 2, dose response (AID 743343); type: functional;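 further: transfected cells were stimulated with diluted bursicon conditioned medium after compound addition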
[17] = blockade of melanocortin 4 receptor signaling – cell-based, plate reader, cherry pick, counter-screen for LGR2 antagonist project, dose response (AID 743444); type: functional;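 further: transfected HEK 293 cells stimulated with alpha-MSH peptide; potency of inhibitors of the alpha-MSH evoked signal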
[18] = target: T4, Small ubiquitin-related modifier 1 (Homo sapiens, UniProt P63165); assay: SUMO1 protein-protein binding blockers, potency – biochemical, FRET, dose response (AID 624383); type: functional; conditions: read-out: IC50_Mean
T4 sequence (P63165 whole entry): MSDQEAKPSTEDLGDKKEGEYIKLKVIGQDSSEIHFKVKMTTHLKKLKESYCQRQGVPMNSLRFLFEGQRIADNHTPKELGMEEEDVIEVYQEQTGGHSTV

[19] = target: T4, Small ubiquitin-related modifier 1; assay: SUMO1 protein interaction blockers, potency – biochemical, fluorescence polarization, uHTS hits, dose response (AID 624382); type: functional; conditions: read-out: IC50_Mean
[20] = cells; type: functional
[21] = bead-based luminescence quenchers, dual-tagged ARNT – biochemical, AlphaScreen, cherry-pick, artefact control for ARNT-TACC3 interaction inhibitor project, dose response (AID 651705); type: functional;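 further: AlphaScreen bead proximity signal that flags compounds interfering with the detection technology; potency reflects signal decrease which marks the compound as an assay artifact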
[22] = Vero E6 cell cytotoxicity, dose response, cytotoxicity control for non-replicating M. tuberculosis project, secondary assay (AID 492998); type: functional, VeroE6; conditions: Vero C1008
[23] = Counterscreen for inhibitors of Trypanosoma brucei methionyl tRNA synthetase (MetRS): Luminescence-based cell-based high throughput dose response assay to identify compounds that are cytotoxic to Jurkat human T lymphocyte cells.; type: functional
[24] = target: T5, Methionyl-tRNA synthetase, putative (Trypanosoma brucei brucei, UniProt Q38C91); type: functional, Trypanosoma brucei brucei strain 927/4 GUTat10.1;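 further: Read-out by fluorescence polarization, run as a confirmatory high-throughput counterscreen; potency of MetRS inhibitors measured by reduced AMP formation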
T5 sequence (Q38C91 whole entry): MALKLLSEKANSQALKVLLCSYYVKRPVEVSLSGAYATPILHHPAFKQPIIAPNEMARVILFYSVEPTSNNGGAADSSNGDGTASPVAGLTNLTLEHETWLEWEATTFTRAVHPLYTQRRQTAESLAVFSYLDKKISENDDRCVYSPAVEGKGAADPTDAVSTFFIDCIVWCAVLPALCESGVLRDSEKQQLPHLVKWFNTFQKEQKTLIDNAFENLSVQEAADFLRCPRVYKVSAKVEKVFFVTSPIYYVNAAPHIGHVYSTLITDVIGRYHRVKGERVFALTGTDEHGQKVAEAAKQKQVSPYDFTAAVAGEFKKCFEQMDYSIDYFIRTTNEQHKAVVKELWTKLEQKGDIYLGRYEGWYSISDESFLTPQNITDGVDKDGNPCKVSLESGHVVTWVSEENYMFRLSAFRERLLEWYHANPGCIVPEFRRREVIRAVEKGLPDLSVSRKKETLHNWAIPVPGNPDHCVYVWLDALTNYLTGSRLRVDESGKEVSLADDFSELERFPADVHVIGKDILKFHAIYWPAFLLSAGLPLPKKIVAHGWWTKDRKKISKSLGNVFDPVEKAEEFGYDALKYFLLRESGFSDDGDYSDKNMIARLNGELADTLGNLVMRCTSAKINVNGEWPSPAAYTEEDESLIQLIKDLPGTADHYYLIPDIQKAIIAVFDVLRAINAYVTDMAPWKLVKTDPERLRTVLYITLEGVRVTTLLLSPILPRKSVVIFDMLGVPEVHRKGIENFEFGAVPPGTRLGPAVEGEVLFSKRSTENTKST

[25] = target: T6, Galanin receptor type 3 (Homo sapiens, UniProt O60755); assay: Fluorescence-based cell-based primary high throughput dose response assay to identify antagonists of the Galanin Receptor 3 (GalR3).; type: functional
T6 sequence (O60755 whole entry): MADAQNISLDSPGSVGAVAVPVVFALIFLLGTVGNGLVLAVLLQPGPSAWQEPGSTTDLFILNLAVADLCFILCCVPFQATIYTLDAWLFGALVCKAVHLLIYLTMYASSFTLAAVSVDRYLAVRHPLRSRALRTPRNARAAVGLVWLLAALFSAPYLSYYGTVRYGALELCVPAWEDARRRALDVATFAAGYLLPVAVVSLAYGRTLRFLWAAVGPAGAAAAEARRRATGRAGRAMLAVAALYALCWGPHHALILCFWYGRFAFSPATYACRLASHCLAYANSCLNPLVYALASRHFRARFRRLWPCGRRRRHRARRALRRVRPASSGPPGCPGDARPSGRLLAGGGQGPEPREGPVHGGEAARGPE

[26] = cells; type: functional, cell-based; conditions: HEK-CNG
[27] = target: T7, Probable nicotinate-nucleotide adenylyltransferase (Staphylococcus aureus (strain N315), UniProt P65502); type: functional, Staphylococcus aureus subsp. aureus N315;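 on IC50 Mean: confirmatory dose-response retesting of NadD inhibitor hits first found in an ultra-high-throughput screen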
T7 sequence (P65502 whole entry): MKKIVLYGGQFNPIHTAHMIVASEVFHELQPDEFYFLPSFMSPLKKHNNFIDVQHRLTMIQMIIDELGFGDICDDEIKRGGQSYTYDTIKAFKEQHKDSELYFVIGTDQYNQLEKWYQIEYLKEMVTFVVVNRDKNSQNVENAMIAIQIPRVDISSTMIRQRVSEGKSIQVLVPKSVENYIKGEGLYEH

[28] = target: T7, Probable nicotinate-nucleotide adenylyltransferase; type: functional, Staphylococcus aureus subsp. aureus N315; conditions: read-out: IC50_Mean
[29] = T. cruzi growth inhibition in host cells, dose response, cell-based, plate reader, dry powder, set 2 (AID 652275); type: functional
[30] = OVCAR-3 cell viability loss – plate reader, dry powder samples, PAX8 inhibitor project, dose response (AID 743044); type: functional, cell-based
[31] = target: Paired box protein Pax-8 (Homo sapiens, UniProt Q06710); assay: PAX8 transcriptional activity inhibition in RMG-I – RMG-I cells, luciferase, cherry-pick, dose response (AID 687027); type: functional, cell-based;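 further: luciferase reporter driven by Pax8 target thyroperoxidase promoter measured by SteadyGlo luminescence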
Paired box protein Pax-8, sequence (Q06710 whole entry): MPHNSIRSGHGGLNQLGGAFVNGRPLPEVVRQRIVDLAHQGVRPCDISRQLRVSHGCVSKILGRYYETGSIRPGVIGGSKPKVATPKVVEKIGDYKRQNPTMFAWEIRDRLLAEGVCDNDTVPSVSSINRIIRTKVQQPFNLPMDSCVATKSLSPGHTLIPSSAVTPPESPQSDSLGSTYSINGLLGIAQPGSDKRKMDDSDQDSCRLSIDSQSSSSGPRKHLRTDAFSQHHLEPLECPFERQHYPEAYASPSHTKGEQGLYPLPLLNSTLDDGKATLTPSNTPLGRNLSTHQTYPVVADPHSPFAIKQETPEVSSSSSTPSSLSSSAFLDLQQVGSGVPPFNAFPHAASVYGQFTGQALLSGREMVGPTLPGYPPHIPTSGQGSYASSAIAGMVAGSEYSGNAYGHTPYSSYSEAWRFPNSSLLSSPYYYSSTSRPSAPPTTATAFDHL

[32] = OVCAR8 cell viability loss – plate reader, dry powder samples, PAX8 project, dose response (AID 743197); type: functional, cell-based; conditions: OVCAR-8

## CCCCCCSC1=C(C#N)C(=O)NC2(CCCCC2)S1
[1]
  AC50: > 100 µM (inactive)

## O=c1[nH]cnc2scc(-c3ccc(-c4ccccc4)cc3)c12
[2]
  EC50: > 99 µM (inactive)
[3]
  EC50: > 99 µM (inactive)

## O=C(/C(=C/c1ccc(Cl)cc1)c1nc2ccccc2[nH]1)c1ccccc1
[4]
  EC50: > 60 µM (not active)
[5]
  EC50: 3.64 µM (active)
[6]
  EC50: 3.11 µM (active)
[7]
  AC50: 7.94 µM (active)
[8]
  AC50: 2.98 µM (active)
[9]
  EC50: 0.824 µM (active)
[10]
  AC50: 1.58 µM (inconclusive)

## COc1cccc(-c2ncc3ccccc3c2CO)c1
[1]
  AC50: 38 µM (active)

## Cc1ccc(S(=O)(=O)N2CCC(C(=O)Nc3ccc(C(C)C)cc3)CC2)cc1
[11]
  IC50: 40.7 µM (active)
[12]
  IC50: 7.81 µM (active)
[13]
  IC50: > 100 µM (inactive)
[14]
  CC50: 13 µM (active)
[15]
  IC50: > 100 µM (inactive)

## COc1ccc(-c2cc(C(=O)N3CCOCC3)no2)cc1
[16]
  AC50: 10.4 µM (active)
[17]
  AC50: 8.26 µM (active)

## Nc1nccnc1C(=O)OCC(=O)Nc1ccc2[nH]c(O)nc2c1
[18]
  IC50: 11.9 µM (active)
[19]
  IC50: > 66.6 µM (inactive)

## O=C(Nc1nnc(-c2ccccc2Cl)o1)c1cccnc1
[20]
  IC50: 8.68 µM (active)
[21]
  AC50: 91.9 µM (active)
[22]
  CC50: > 20 µM (active)

## COc1ccccc1NS(=O)(=O)c1cc(NC(=O)Nc2ccccc2)ccc1N1CCCCC1
[23]
  IC50: 83.3 µM (inactive)
[24]
  IC50: 19.7 µM (inactive)

## O=C1NC(=O)N(CCc2ccc(F)cc2)C(=O)/C1=C/NNC(=O)c1ccncc1
[25]
  IC50: > 29.9 µM (inactive)
[26]
  EC50: > 29.9 µM (inactive)

## Cc1ccc(NC(=O)Nc2ccc(F)c(Cl)c2)cc1
[7]
  AC50: 33.1 µM (active)

## CC(C)C[C@@H](CNCC(=O)[C@H](CC(=O)O)NC(=O)c1nc[nH]c1C(=O)N[C@H](CN)CC(C)C)NC(=O)c1[nH]cnc1C(=O)N[C@@H](Cc1ccccc1)C(=O)O
[18]
  IC50: 5.92 µM (active)
[19]
  IC50: 50.1 µM (inactive)
[27]
  IC50: 12.4 µM (active)
[28]
  IC50: 44 µM (active)

## CCOc1ccccc1CNC(=O)CCNS(=O)(=O)c1ccc2nc(O)oc2c1
[12]
  IC50: 2.65 µM (active)
[13]
  IC50: > 100 µM (inactive)
[15]
  IC50: 22.7 µM (active)

## C[C@@H]1CCCCO[C@H](CN(C)Cc2ccc(Cl)c(Cl)c2)[C@@H](C)CN([C@H](C)CO)C(=O)c2cc(N(C)C)ccc2O1
[29]
  AC50: 2.73 µM (active)

## C[C@@H]1CN([C@H](C)CO)C(=O)c2cc(NC(=O)Nc3ccc(C(F)(F)F)cc3)ccc2O[C@@H](C)CCCCO[C@@H]1CN(C)C(=O)c1ccccc1
[30]
  AC50: 7.17 µM (active)
[31]
  AC50: 5.42 µM (active)
[32]
  AC50: > 70 µM (inactive)

## CC(C)N1CC2(CN(Cc3ccc(F)cc3)C2)Oc2c(NC(=O)c3ccncc3)cccc2C1=O
[29]
  AC50: 0.876 µM (active)

## COCCn1c(C)cc(/C=N/NC(=O)c2cc3ccccc3cc2O)c1C
[1]
  AC50: 17.4 µM (active)

## Cn1/c(=N\C(=O)c2ccco2)sc2cccc(F)c21
[7]
  AC50: 25.3 µM (active)

## C#CCN1c2ccccc2Sc2cccnc21
[2]
  EC50: > 99 µM (inactive)
[3]
  EC50: 85.6 µM (inactive)

## NCCc1c[nH]cn1 [HISTAMINE]
[21]
  AC50: 106 µM (active)
